Experiments:
[1] = biological target: JAK1 (recombinant purified GST-tagged catalytic domain) (Homo sapiens (Human), UniProt P23458); assay: biochemical;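 note: biochemical assay with HTRF read-out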
[2] = biological target: JAK2 (recombinant purified GST-tagged catalytic domain) (Homo sapiens (Human), UniProt O60674); assay: biochemical;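 note: biochemical JAK kinase assay with HTRF detection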
JAK2 (recombinant purified GST-tagged catalytic domain), sequence (O60674 849-1124): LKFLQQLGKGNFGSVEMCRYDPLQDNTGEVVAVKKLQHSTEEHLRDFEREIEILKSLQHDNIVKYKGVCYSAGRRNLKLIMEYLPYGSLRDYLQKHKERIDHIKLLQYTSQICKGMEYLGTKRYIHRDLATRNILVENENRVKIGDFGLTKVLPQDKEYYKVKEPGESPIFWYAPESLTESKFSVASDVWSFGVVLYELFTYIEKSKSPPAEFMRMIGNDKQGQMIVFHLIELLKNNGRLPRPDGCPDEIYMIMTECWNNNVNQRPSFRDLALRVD

JAK1 (recombinant purified GST-tagged catalytic domain), sequence (P23458 875-1153): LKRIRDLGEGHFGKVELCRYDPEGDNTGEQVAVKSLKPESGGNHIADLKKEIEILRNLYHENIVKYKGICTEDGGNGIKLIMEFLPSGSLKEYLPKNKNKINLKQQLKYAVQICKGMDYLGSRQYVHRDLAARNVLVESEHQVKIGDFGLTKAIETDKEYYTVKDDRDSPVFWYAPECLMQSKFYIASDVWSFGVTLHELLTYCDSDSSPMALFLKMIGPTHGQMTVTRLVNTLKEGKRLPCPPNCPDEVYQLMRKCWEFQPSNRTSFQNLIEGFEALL

| IC50 [1] [nM] | IC50 [2] [nM] | Structure (SMILES) |
| --- | --- | --- |
| 2 | 20 | COCCN(C)[C@H]1CCC(n2cc(C(N)=O)c(Nc3ccc(Cl)cc3)n2)[C@@H](C#N)C1 (single isomer, unassigned) [Example 28-239, 3-[(4-chlorophenyl)amino]-1-{(1S,2S,4S or 1R,2R,4R)-2-cyano-4-[(2-methoxy-ethyl)(methyl)amino]cyclo-hexyl}-1H-pyrazole-4-carboxamide] |
| 1 | 48 | N#C[C@H]1C[C@H](NCC2(O)CC2)CC[C@@H]1n1cc(C(N)=O)c(Nc2ccc(C(F)(F)F)cc2)n1 (single isomer, unassigned) [Example 28-35, 1-[(1S,2S,4R or 1R,2R,4S)-2-cyano-4-{[(1-hydroxycyclo-propyl)methyl]amino}cyclo-hexyl]-3-{[4-(trifluoro-methyl)phenyl]amino}-1H-pyrazole-4-carboxamide] |
| 7 | 39 | N#C[C@H]1CCCC[C@@H]1n1cc(C(N)=O)c(Nc2cncc(Cl)c2)n1 (single isomer, unassigned) [Example 17-47, 3-[(5-chloropyridin-3-yl)amino]-1-[(1S,2S or 1R,2R)-2-cyanocyclohexyl]-1H-pyrazole-4-carboxamide] |
| 9 | 106 | CN(C1COC1)[C@H]1CC[C@@H](n2cc(C(N)=O)c(Nc3ccc(C(F)(F)F)cc3)n2)[C@H](C#N)C1 (single isomer, unassigned) [Example 30-1, 1-{(1R,2R,4S or 1S,2S,4R)-2-Cyano-4-[methyl(oxetan-3-yl)amino]cyclohexyl}-3-{[4-(trifluoromethyl)phenyl]amino}-1H-pyrazole-4-carboxamide] |
| 9 | 59 | CC(C)(O)C1CN(C(=O)[C@@H]2CC[C@@H](n3cc(C(N)=O)c(Nc4ccc(Cl)cc4)n3)[C@H](C#N)C2)C1 (single isomer, unassigned) [Example 35-3, 3-[(4-chlorophenyl)amino]-1-[(1R,2R,4R or 1S,2S,4S)-2-cyano-4-{[3-(1-hydroxy-1-methylethyl)azetidin-1-yl]carbonyl}cyclohexyl]-1H-pyrazole-4-carboxamide] |
| 0.5 | 3 | N#Cc1ccc(Nc2nn([C@H]3CC[C@H](O)C[C@@H]3C#N)cc2C(N)=O)cc1 (single isomer, unassigned) [Example 33-6, 1-[(1S,2S,4S or 1R,2R,4R)-2-cyano-4-hydroxycyclohexyl]-3-[(4-cyanophenyl)amino]-1H-pyrazole-4-carboxamide] |
| 0.3 | 9 | CC1(O)CN([C@@H]2CC[C@H](n3cc(C(N)=O)c(Nc4ccc(C(F)(F)F)cc4)n3)[C@@H](C#N)C2)C1 (single isomer, unassigned) [Example 28-199, 1-[(1S,2S,4R or 1R,2R,4S)-2-cyano-4-(3-hydroxy-3-methylazetidin-1-yl)cyclohexyl]-3-{[4-(trifluoromethyl)phenyl]amino}-1H-pyrazole-4-carboxamide] |
| 0.35 | 2 | N#C[C@H]1CCCC[C@@H]1n1cc(C(N)=O)c(Nc2ccc(S(=O)(=O)Nc3ccncc3)cc2)n1 (single isomer, unassigned) [Example 17-81, 1-[(1R,2R or 1S,2S)-2-cyanocyclohexyl]-3-{[4-(pyridin-4-ylsulfamoyl)phenyl]amino}-1H-pyrazole-4-carboxamide] |
| 4 | 25 | Cc1noc(-c2ccc(Nc3nn([C@H]4CCCC[C@@H]4C#N)cc3C(N)=O)cc2)n1 (racemic) [Example 17-6, 1-[(1S,2S and 1R,2S)-2-cyanocyclohexyl]-3-{[4-(3-methyl-1,2,4-oxadiazol-5-yl)phenyl]amino}-1H-pyrazole-4-carboxamide] |
| 0.33 | 1 | N#C[C@@H]1CCCC[C@H]1n1cc(C(N)=O)c(Nc2ccc(S(=O)(=O)NCC3CC3)cc2)n1 (single isomer, unassigned) [Example 17-66, 1-[(1R,2R or 1S,2S)-2-cyanocyclohexyl]-3-({4-[(cyclopropylmethyl)sulfamoyl]phenyl}amino)-1H-pyrazole-4-carboxamide] |
| 1 | 56 | CN[C@H]1CCC(n2cc(C(N)=O)c(Nc3ccc(F)cc3)n2)[C@@H](C#N)C1 (mixture of isomers) [Example 27-4, 1-[(1S,2S,4S and 1R,2R,4R)-2-cyano-4-(methylamino)cyclohexyl]-3-[(4-fluorophenyl)amino]-1H-pyrazole-4-carboxamide] |
| 0.95 | 11 | N#C[C@H]1CCCC[C@@H]1n1cc(C(N)=O)c(Nc2ccc(Cl)cc2)n1 (single isomer, unassigned) [Example 17-107, 3-[(4-chlorophenyl)amino]-1-[(1S,2S or 1R,2R)-2-cyanocyclohexyl]-1H-pyrazole-4-carboxamide] |
| 5 | 35 | CC1(O)CN(C(=O)[C@@H]2CC[C@@H](n3cc(C(N)=O)c(Nc4ccc(Cl)cc4)n3)[C@H](C#N)C2)C1 (single isomer, unassigned) [Example 35-27, 3-[(4-chlorophenyl)amino]-1-{(1R,2R,4R or 1S,2S,4S)-2-cyano-4 [(3-hydroxy-3-methylazetidin-1-yl)carbonyl]cyclohexyl}-1H-pyrazole-4-carboxamide] |
| 2 | 14 | N#C[C@H]1C[C@@H](NC2(CO)CC2)CCC1n1cc(C(N)=O)c(Nc2ccc(Cl)cc2)n1 (single isomer, unassigned) [Example 28-223, 3-[(4-chlorophenyl)amino]-1-[(1S,2S,4S or 1R,2R,4R)-2-cyano-4-{[1-(hydroxymethyl)cyclopropyl]a-mino}cyclohexyl]-1H-pyrazole-4-carboxamide] |
| 0.9 | 3 | N#C[C@H]1CCCC[C@@H]1n1cc(C(N)=O)c(Nc2ccc(S(=O)(=O)N3CCC4(CC3)OCCO4)cc2)n1 (single isomer, unassigned) [Example 17-92, 1-[(1R,2R or 1S,2S)-2-cyanocyclohexyl]-3-{[4-(1,4-dioxa-8-azaspiro[4.5]dec-8-ylsulfonyl)phenyl]amino}-1H-pyrazole-4-carboxamide] |
| 2 | 58 | CN(C)[C@H]1CC[C@H](n2cc(C(N)=O)c(Nc3ccc(Cl)c(F)c3)n2)[C@@H](C#N)C1 (single isomer, unassigned) [Example 28-41, 3-[(4-chloro-3-fluorophenyl)amino]-1-[(1S,2S,4S or 1R,2R,4R)-2-cyano-4-(dimethylamino)cyclohexyl]-1H-pyrazole-4-carboxamide] |
| 1 | 11 | N#C[C@H]1CCCC[C@@H]1n1cc(C(N)=O)c(Nc2ccc(Br)cc2)n1 (single isomer, unassigned) [Example 17-26, 3-[(4-bromophenyl)amino]-1-[(1S,2S or 1R,2R)-2-cyanocyclohexyl]-1H-pyrazole-4-carboxamide] |
| 0.25 | 3 | N#C[C@H]1C[C@H](O)CC[C@@H]1n1cc(C(N)=O)c(Nc2ccc([C@H](O)C(F)(F)F)cc2)n1 (single isomer, unassigned) [Example 25-13, 1-[(1S,2S,4R or 1R,2R,4S)-2-cyano-4-hydroxycyclohexyl]-3-({4-[(1S or 1R)-2,2,2-trifluoro-1-hydroxyethyl]phenyl}amino)-1H-pyrazole-4-carboxamide] |
| 0.4 | 49 | CC(C)(O)C1CN([C@@H]2CC[C@H](n3cc(C(N)=O)c(Nc4ccc(C(F)(F)F)cc4)n3)[C@@H](C#N)C2)C1 (single isomer, unassigned) [Example 28-7, 1-{(1S,2S,4R or 1R,2R,4S)-2-cyano-4-[3-(1-hydroxy-1-methylethyl)azetidin-1-yl]cyclohexyl}-3-{[4-(trifluoro-methyl)phenyl]amino}-1H-pyrazole-4-carboxamide] |
| 0.3 | 2 | N#C[C@H]1C[C@@H](O)CC[C@@H]1n1cc(C(N)=O)c(Nc2ccc([C@H](O)C(F)(F)F)cc2)n1 (single isomer, unassigned) [Example 33-10, 1-[(1S,2S,4S or 1R,2R,4R)-2-cyano-4-hydroxycyclohexyl]-3-({4-[(1S)-2,2,2-trifluoro-1-hydroxyethyl]phenyl}amino)-1H-pyrazole-4-carboxamide] |
| 2 | 8 | N#C[C@H]1CCCCC1n1cc(C(N)=O)c(Nc2ccc3c(c2)CCC(=O)N3)n1 (mixture of isomers) [Example 17-11, 1-[(1S,2S and 1R,2R)-2-cyanocyclohexyl]-3-[(2-oxo-1,2,3,4-tetrahydroquinolin-6-yl)amino]-1H-pyrazole-4-carboxamide] |
| 0.3 | 9 | CC(=O)c1ccc(Nc2nn([C@H]3CC[C@H](N4CCC4)C[C@@H]3C#N)cc2C(N)=O)cc1 (single isomer, unassigned) [Example 28-84, 3-[(4-acetylphenyl)amino]-1-[(1S,2S,4S or 1R,2R,4R)-4-azetidin-1-yl-2-cyanocyclohexyl]-1H-pyrazole-4-carboxamide] |
| 0.25 | 1 | COCCNS(=O)(=O)c1ccc(Nc2nn([C@H]3CCCC[C@@H]3C#N)cc2C(N)=O)cc1 (single isomer, unassigned) [Example 17-98, 1-[(1R,2R or 1S,2S)-2-cyanocyclohexyl]-3-({4-[(2-methoxyethyl)sulfamoyl]phenyl}amino)-1H-pyrazole-4-carboxamide] |
| 2 | 110 | N#C[C@H]1C[C@H](N2CCC2)CC[C@@H]1n1cc(C(N)=O)c(Nc2ccc(Cl)cc2)n1 (single isomer, unassigned) [Example 28-109, 1-[(1S,2S,4R or 1R,2R,4S)-4-azetidin-1-yl-2-cyanocyclohexyl]-3-[(4-chlorophenyl)amino]-1H-pyrazole-4-carboxamide] |
| 0.85 | 17 | N#C[C@@H]1C[C@@H](NC2COC2)CC[C@H]1n1cc(C(N)=O)c(Nc2ccc(C(F)(F)F)cc2)n1 (single isomer, unassigned) [Example 30-17, 1-[(1R,2R,4S or 1S,2S,4R)-2-cyano-4-(oxetan-3-ylamino)cyclohexyl]-3-{[4-(trifluoromethyl)phenyl]amino}-1H-pyrazole-4-carboxamide] |

— patent US8962608B2, “Cycloalkylnitrile pyrazole carboxamides as janus kinase inhibitors” (Merck Sharp & Dohme Corp., priority 2011, dated 2015)
